From ChEMBL document CHEMBL1201862, “PubChem BioAssay data set” (2004)
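The compound was tested at five concentrations on cells cultured in 96-well plates, with a 48-hour exposure period. GI50: concentration for 50% inhibition of growth.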 Active and inactive are the calls of the source. No stated cut-off is given here; in the data, active = GI50 up to about 1.1 µM and inactive = higher.

Experiments:
Experiment in all cases: NCI anticancer screen, dose series, 48 h
[1] = system: M19-MEL
[2] = system: LXFL 529
[3] = system: NCI-H460
[4] = system: DMS-114
[5] = system: XF498
[6] = system: NCI-H23
[7] = system: KM12
[8] = system: UO-31
[9] = system: HOP-92
[10] = system: KM-20L2
[11] = system: A498
[12] = system: IGROV-1
[13] = system: SF-295
[14] = system: RXF 393

Row | SMILES | GI50 [1] | GI50 [2] | GI50 [3] | GI50 [4] | GI50 [5] | GI50 [6] | GI50 [7] | GI50 [8] | GI50 [9] | GI50 [10] | GI50 [11] | GI50 [12] | GI50 [13] | GI50 [14]
1 | CCCCOC(=O)/C(CC(=O)C=C(C)C)=N\NS(=O)(=O)c1ccc(C)cc1 | > 100 µM (inactive) | > 100 µM (inactive) | > 100 µM (inactive) | 21.1 µM (inactive) | > 100 µM (inactive) | > 100 µM (inactive) | > 100 µM (inactive) | > 100 µM (inactive) | > 100 µM (inactive) | > 100 µM (inactive) | > 100 µM (inactive) | > 100 µM (inactive) | > 100 µM (inactive) | > 100 µM (inactive)
2 | OCC(O)C(OC1OC(CO)C(O)C(O)C1O)c1nn(-c2ccc(Cl)cc2)c2nc3cc(Cl)ccc3nc12 (stereo unspecified) | > 100 µM (inactive) | > 100 µM (inactive) | > 100 µM (inactive) | > 100 µM (inactive) | > 100 µM (inactive) | > 100 µM (inactive) | > 100 µM (inactive) | > 100 µM (inactive) |  | > 100 µM (inactive) | > 100 µM (inactive) |  | > 100 µM (inactive) | > 100 µM (inactive)
3 | O=c1c(O)c(-c2ccc(O)c(O)c2)oc2cc(O)ccc12 [FISETIN] | 26 µM (inactive) | 15 µM (inactive) | 8.05 µM (inactive) | 15.2 µM (inactive) | 20.9 µM (inactive) | 11.6 µM (inactive) | 5.62 µM (inactive) | 14.5 µM (inactive) | 28.2 µM (inactive) | 27.2 µM (inactive) | 26.3 µM (inactive) | 18.6 µM (inactive) | 18.5 µM (inactive) | 23.9 µM (inactive)
4 | O=C1C=C(c2ccccc2)NC1(c1ccccc1)c1cc(-c2ccccc2)[nH]c1-c1ccccc1 (stereo unspecified) | > 100 µM (inactive) | > 100 µM (inactive) | > 100 µM (inactive) | > 100 µM (inactive) | < 0.01 µM (active) | > 100 µM (inactive) | > 100 µM (inactive) | > 100 µM (inactive) |  | > 100 µM (inactive) | > 100 µM (inactive) | > 100 µM (inactive) | > 100 µM (inactive) | 0.182 µM (active)
5 | COC(=O)NC12CC3CC(CC(F)(C3)C1)C2 | > 100 µM (inactive) |  | > 100 µM (inactive) |  | > 100 µM (inactive) | > 100 µM (inactive) | > 100 µM (inactive) | > 100 µM (inactive) | > 100 µM (inactive) | > 100 µM (inactive) | > 100 µM (inactive) | > 100 µM (inactive) |  | > 100 µM (inactive)
6 | CCOC(=O)[C@]12C3C=CC(C3)C1C(=O)C1OC12 (stereo partly specified) | > 100 µM (inactive) | > 100 µM (inactive) | > 100 µM (inactive) | > 100 µM (inactive) | > 100 µM (inactive) | > 100 µM (inactive) | > 100 µM (inactive) | > 100 µM (inactive) | 0.109 µM (active) |  | > 100 µM (inactive) | > 100 µM (inactive) | > 100 µM (inactive) | 
7 | CC(=O)O[C@]12CCCCCC1C1(O)C(O)CCCCC12 (stereo partly specified) | > 100 µM (inactive) | > 100 µM (inactive) | > 100 µM (inactive) | > 100 µM (inactive) | > 100 µM (inactive) | > 100 µM (inactive) | > 100 µM (inactive) | > 100 µM (inactive) |  | > 100 µM (inactive) |  |  | > 100 µM (inactive) | > 100 µM (inactive)
8 | COc1cc2ccc(C(=O)O)cc2cc1OC | > 100 µM (inactive) | > 100 µM (inactive) | > 100 µM (inactive) |  | > 100 µM (inactive) | > 100 µM (inactive) | > 100 µM (inactive) | > 100 µM (inactive) | > 100 µM (inactive) | > 100 µM (inactive) | 49.7 µM (inactive) | > 100 µM (inactive) | > 100 µM (inactive) | > 100 µM (inactive)
9 | CC(C)N(C(=O)C12C3C4C1C1C2C3C41C(=O)N(C(C)C)C(C)C)C(C)C (stereo unspecified) | > 50 µM (inactive) | > 50 µM (inactive) | > 50 µM (inactive) | > 50 µM (inactive) | > 50 µM (inactive) | > 50 µM (inactive) | > 50 µM (inactive) | > 50 µM (inactive) |  | > 50 µM (inactive) | > 50 µM (inactive) | > 50 µM (inactive) | > 50 µM (inactive) | 
10 | O=C(CC/C(CC(=O)c1ccc(Cl)cc1)=N\O)Nc1cccc(Cl)c1 | > 100 µM (inactive) | > 100 µM (inactive) | > 100 µM (inactive) | > 100 µM (inactive) | > 100 µM (inactive) | > 100 µM (inactive) | > 100 µM (inactive) | > 100 µM (inactive) |  | > 100 µM (inactive) | > 100 µM (inactive) | > 100 µM (inactive) | > 100 µM (inactive) | 
11 | N#CC(C(=O)CCC(=O)Nc1cccc(C(F)(F)F)c1)c1ccc(Cl)cc1 (stereo unspecified) | > 100 µM (inactive) | > 100 µM (inactive) | > 100 µM (inactive) |  | > 100 µM (inactive) | > 100 µM (inactive) | > 100 µM (inactive) | > 100 µM (inactive) | > 100 µM (inactive) | > 100 µM (inactive) | > 100 µM (inactive) | > 100 µM (inactive) | > 100 µM (inactive) | 
